Data as given in the supplement of paper PMC10307832.

What follows are cell lines tested with CC(C)C[C@@H](C(=O)N[C@H](C(=O)OC1CCCC1)c1ccccc1)[C@H](O)C(=O)NO [Tosedostat] + Nc1nc2[nH]cc(CCc3ccc(C(=O)N[C@@H](CCC(=O)O)C(=O)O)cc3)c2c(=O)[nH]1 [Pemetrexed] (partner 0.2 µM) (assay: relative viability (nuclei count vs DMSO), 5 days (fraction); higher = more cells survive). Settings: first compound 2 µM.
In short: (§1)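 A single step with final 0.05% Triton X-100, 1% formaldehyde and 1 ug/ml Hoechst fixed the cells and stained nuclei 5 days after treatment. Lung cancer cell lines in 1536-well plates had been treated by pin tool the day after seeding with one drug alone or a fixed anchor-drug dose plus five library-drug doses (not always all listed) in √10 steps, and nuclei were counted on 4× images. Relative viability is the ratio of nuclei in treated wells to nuclei in vehicle wells, taken as the median of duplicate plates.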

Row | Cell Line | relative viability
1 | NCI-H596 | 0.45
2 | NCI-H1355 | 0.916
3 | SW 1573 | 1
4 | LCLC-103H | 0.57
5 | NCI-H2405 | 0.85
6 | EMC-BAC-2 | 0.655
7 | NCI-H23 | 0.361
8 | HCC-366 | 0.317
9 | NCI-H1755 | 0.416
10 | NCI-H838 | 0.29
11 | LK-2 | 0.374
12 | NCI-H2347 | 0.374
13 | NCI-H2342 | 0.728
14 | SK-MES-1 | 0.993
15 | H3255 | 0.638
16 | COR-L23 | 0.172
17 | COR-L 105 | 0.894

Row | Cell Line | relative viability
18 | LU99A | 0.191
19 | ChaGo-K-1 | 0.275
20 | NCI-H2170 | 0.352
21 | NCI-H460 | 0.0547
22 | HOP-62 | 0.472
23 | HCC-44 | 0.639
24 | SW 900 | 0.486
25 | LXF-289 | 1.07
26 | BEN | 1.06
27 | HARA | 0.25
28 | NCI-H1648 | 0.532
29 | HCC-78 | 0.922
30 | NCI-H1395 | 0.725
31 | NCI-H1563 | 0.839
32 | NCI-H1793 | 0.598
33 | NCI-H1944 | 0.819
34 | NCI-H358 | 0.161

Each cell line was assayed with CC1=NN=C(O1)C2=NN=C(C=C2)N3CCC(CC3)OC4=C(C=CC(=C4)F)Cl + O=C(CCCCCCC(=O)Nc1ccccc1)NO [Vorinostat] (partner 1 µM) in the same assay as above. Settings: first compound 0.253 µM.
In short: as §1

Row | Cell Line | relative viability
35 | NCI-H522 | 0.958
36 | SK-LU-1 | 0.675
37 | NCI-H2087 | 0.242
38 | NCI-H596 | 0.474
39 | NCI-H1355 | 0.405
40 | SW 1573 | 0.717
41 | LCLC-103H | 0.503
42 | NCI-H727 | 1.16
43 | NCI-H2405 | 0.583
44 | EMC-BAC-2 | 0.512
45 | NCI-H23 | 0.565
46 | HCC-366 | 0.0995
47 | NCI-H1755 | 0.538
48 | NCI-H838 | 0.583
49 | LK-2 | 0.352
50 | NCI-H2347 | 0.629
51 | NCI-H2342 | 0.551
52 | SK-MES-1 | 0.781
53 | H3255 | 0.581

Row | Cell Line | relative viability
54 | COR-L23 | 0.332
55 | COR-L 105 | 0.797
56 | IA-LM | 0.402
57 | LU99A | 0.549
58 | ChaGo-K-1 | 0.546
59 | NCI-H2170 | 0.449
60 | NCI-H460 | 0.16
61 | HOP-62 | 0.543
62 | HCC-44 | 0.584
63 | LXF-289 | 0.637
64 | BEN | 0.566
65 | HARA | 0.476
66 | NCI-H1648 | 0.376
67 | HCC-78 | 0.425
68 | NCI-H1395 | 0.656
69 | NCI-H1793 | 0.683
70 | NCI-H1944 | 0.349
71 | ABC-1 | 0.542
72 | NCI-H358 | 0.405

Same assay, conditions: first compound 0.8 µM

Row | Cell Line | relative viability
73 | NCI-H522 | 0.925
74 | SK-LU-1 | 0.629
75 | NCI-H2087 | 0.376
76 | NCI-H596 | 0.564
77 | NCI-H1355 | 0.478
78 | SW 1573 | 0.421
